Experimental data as given in the supplement of paper PMC13380429.

How the values were obtained:
Details in all cases: 72 h
U2OS [1] = test: cell viability relative to DMSO; higher = less toxic
Calu-3 [2] = test: as above
Caco-2 [3] = test: as above
HepG2 [4] = test: as above
Vero E6 [5] = test: as above
U2OS [6] = test: drug sensitivity score (DSS) for viability; higher = more toxic; extreme values may be limits of the assay
Calu-3 [7] = test: as above
Caco-2 [8] = test: as above
HepG2 [9] = test: as above
Vero E6 [10] = test: as above
U2OS [11] = test: relative viability EC50 (midpoint between 100% and the lowest measured viability); higher = less toxic
Calu-3 [12] = test: as above
Caco-2 [13] = test: as above
HepG2 [14] = test: as above
Vero E6 [15] = test: as above

Row | SMILES | cell viability (U2OS [1]; 1 nM) [%] | cell viability (U2OS [1]; 10 nM) [%] | cell viability (U2OS [1]; 100 nM) [%] | cell viability (U2OS [1]; 1000 nM) [%] | cell viability (U2OS [1]; 10000 nM) [%] | cell viability (Calu-3 [2]; 1 nM) [%] | cell viability (Calu-3 [2]; 10 nM) [%] | cell viability (Calu-3 [2]; 100 nM) [%] | cell viability (Calu-3 [2]; 1000 nM) [%] | cell viability (Calu-3 [2]; 10000 nM) [%] | cell viability (Caco-2 [3]; 1 nM) [%] | cell viability (Caco-2 [3]; 10 nM) [%] | cell viability (Caco-2 [3]; 100 nM) [%] | cell viability (Caco-2 [3]; 1000 nM) [%] | cell viability (Caco-2 [3]; 10000 nM) [%] | cell viability (HepG2 [4]; 1 nM) [%] | cell viability (HepG2 [4]; 10 nM) [%] | cell viability (HepG2 [4]; 100 nM) [%] | cell viability (HepG2 [4]; 1000 nM) [%] | cell viability (HepG2 [4]; 10000 nM) [%] | cell viability (Vero E6 [5]; 1 nM) [%] | cell viability (Vero E6 [5]; 10 nM) [%] | cell viability (Vero E6 [5]; 100 nM) [%] | cell viability (Vero E6 [5]; 1000 nM) [%] | cell viability (Vero E6 [5]; 10000 nM) [%] | drug sensitivity score (U2OS [6]) | drug sensitivity score (Calu-3 [7]) | drug sensitivity score (Caco-2 [8]) | drug sensitivity score (HepG2 [9]) | drug sensitivity score (Vero E6 [10]) | relative viability EC50 (U2OS [11]) [µM] | relative viability EC50 (Calu-3 [12]) [µM] | relative viability EC50 (Caco-2 [13]) [µM] | relative viability EC50 (HepG2 [14]) [µM] | relative viability EC50 (Vero E6 [15]) [µM]
1 | CCCN(CCC)[C@H]1CCc2ccc(O)cc2C1 [7-hydroxy-DPAT] | 101 | 97.1 | 101 | 104 | 103 | 92.7 | 89.7 | 98.7 | 102 | 96 | 96.5 | 95.4 | 106 | 100 | 96.4 | 112 | 106 | 92.8 | 99.9 | 99.5 | 101 | 105 | 101 | 104 | 99.4 | 0 | 0 | 0 | 0 | 0 | > 10 | > 10 | > 10 | > 10 | > 10
2 | CNC(=O)[C@H](Cc1c[nH]c2ccccc12)NC(=O)[C@@H](CC(=O)NO)CC(C)C [ilomastat] | 97.6 | 98.2 | 85.8 | 102 | 84.7 | 102 | 98.6 | 107 | 97.3 | 90.4 | 94.1 | 104 | 102 | 96.6 | 102 | 107 | 90.5 | 104 | 90.5 | 103 | 97.4 | 97 | 95 | 93.2 | 88.7 | 0 | 0 | 0 | 0 | 0 | > 10 | > 10 | > 10 | > 10 | > 10
3 | C[C@H](NCc1ccc(OCc2cccc(F)c2)cc1)C(N)=O [safinamide] | 94.2 | 102 | 99 | 105 | 108 | 95 | 101 | 92.2 | 102 | 108 | 97.9 | 97.4 | 101 | 102 | 100 | 98.1 | 92.5 | 98.4 | 93.4 | 96.6 | 101 | 89.8 | 99.5 | 97.2 | 100 | 0 | 0 | 0 | 0 | 0 | > 10 | > 10 | > 10 | > 10 | > 10
4 | C[N+]1(C)CCCC(OC(=O)C(O)(c2ccccc2)c2ccccc2)C1 (stereo not given) [mepenzolate] | 99.7 | 101 | 96.6 | 101 | 96.9 | 105 | 103 | 96.1 | 110 | 94.5 | 91.3 | 87.1 | 96.6 | 101 | 101 | 107 | 98.1 | 104 | 91.9 | 94.3 | 94.9 | 105 | 97.5 | 99.6 | 99.8 | 0 | 0 | 0 | 0 | 0 | > 10 | > 10 | > 10 | > 10 | > 10
5 | CCN(CC)CCNc1ccc(CO)c2sc3ccccc3c(=O)c12 [hycanthone] | 100 | 101 | 96.2 | 104 | 85.2 | 101 | 110 | 101 | 102 | 84.8 | 90 | 106 | 111 | 104 | 44.2 | 101 | 96.5 | 84.2 | 70 | 0.7 | 104 | 101 | 103 | 88.5 | 32.8 | 0.1 | 0.2 | 2.7 | 9.1 | 5.6 | > 10 | > 10 | 3.5 | 1.55 | 1.87
6 | COc1ccc2c3c1O[C@H]1C[C@@H](O)C=C[C@@]31CCN(C)C2 [galantamine] | 101 | 95.4 | 96.5 | 104 | 104 | 96.9 | 91.2 | 103 | 104 | 99.9 | 90.2 | 104 | 106 | 112 | 108 | 84.5 | 105 | 85.8 | 102 | 100 | 102 | 99.1 | 103 | 90.8 | 93.6 | 0 | 0 | 0 | 0 | 0 | > 10 | > 10 | > 10 | > 10 | > 10
7 | O=C(O)P(=O)(O)O [foscarnet] | 104 | 100 | 99.2 | 99.1 | 102 | 110 | 105 | 106 | 91.9 | 93.4 | 97.4 | 103 | 97.5 | 102 | 102 | 102 | 105 | 99.9 | 104 | 96.7 | 106 | 104 | 98.3 | 99.5 | 101 | 0 | 0 | 0 | 0 | 0 | > 10 | > 10 | > 10 | > 10 | > 10
8 | O=C(NCCO)c1cc(C(=O)NCCO)cc(C(=O)NCCO)c1 [LM-22A4] | 94.6 | 97.7 | 96.1 | 99.5 | 93.5 | 104 | 105 | 97 | 102 | 91.9 | 96.8 | 96.1 | 97.3 | 99.2 | 100 | 104 | 103 | 101 | 97.5 | 102 | 105 | 98.3 | 106 | 98.4 | 105 | 0 | 0 | 0 | 0 | 0 | > 10 | > 10 | > 10 | > 10 | > 10
9 | Cn1cnnc1Sc1c([N+](=O)[O-])ncn1C [MNITMT] | 102 | 97.7 | 99.5 | 97.4 | 98.4 | 100 | 111 | 94.9 | 85.5 | 92.2 | 99.9 | 96.3 | 104 | 94.2 | 95.8 | 100 | 99.9 | 93.1 | 94.1 | 99.7 | 105 | 99.3 | 99.2 | 97.5 | 88.7 | 0 | 1.7 | 0 | 0 | 0.1 | > 10 | > 10 | > 10 | > 10 | > 10
10 | N[C@@H](C(=O)O)[C@@H](OCc1ccccc1)C(=O)O.N[C@H](C(=O)O)[C@H](OCc1ccccc1)C(=O)O [TBOA-(DL)] | 99.5 | 101 | 97.2 | 95 | 99.2 | 96.7 | 87.8 | 92.4 | 98.4 | 109 | 96.3 | 94.6 | 89.8 | 90.2 | 92.4 | 100 | 94.1 | 91.5 | 96.6 | 82.5 | 104 | 100 | 101 | 96.6 | 98.8 | 0 | 0 | 0 | 0.3 | 0 | > 10 | > 10 | > 10 | > 10 | > 10
11 | CCOC(=O)n1ccn(C)c1=S [carbimazole] | 99.5 | 91 | 94.4 | 101 | 103 | 92.4 | 95.4 | 101 | 104 | 107 | 98 | 98.7 | 100 | 104 | 100 | 94.7 | 99.8 | 93.3 | 90.6 | 103 | 90.9 | 89.5 | 91.2 | 93.7 | 108 | 0 | 0 | 0 | 0 | 0 | > 10 | > 10 | > 10 | > 10 | > 10
12 | CCN(Cc1ccncc1)C(=O)C(CO)c1ccccc1 (stereo not given) [tropicamide] | 91.7 | 98.8 | 95.4 | 99 | 103 | 98.6 | 90.5 | 101 | 95.9 | 103 | 86.2 | 96.9 | 97.2 | 89.4 | 101 | 106 | 98 | 107 | 91.9 | 97.8 | 94.2 | 88.8 | 91.8 | 84.8 | 102 | 0 | 0 | 0 | 0 | 0 | > 10 | > 10 | > 10 | > 10 | > 10
13 | CCc1cccc(CC)c1NC(=O)CN(CC(=O)O)CC(=O)O [etifenin] | 87.1 | 97.2 | 90.1 | 103 | 106 | 94.6 | 104 | 105 | 90.5 | 90.6 | 83.1 | 104 | 95.7 | 124 | 93.3 | 104 | 84.1 | 106 | 95.9 | 113 | 106 | 93.7 | 106 | 97.4 | 95 | 0 | 0 | 0 | 0 | 0 | > 10 | > 10 | > 10 | > 10 | > 10
14 | Cc1cc(NC(=O)Nc2ccc(N(C)C)cc2)c2cc(F)cc(F)c2n1 | 98.4 | 104 | 99.8 | 103 | 91.9 | 95.2 | 98.8 | 101 | 105 | 94.7 | 100 | 103 | 99.8 | 89.5 | 91.6 | 103 | 93.7 | 96.4 | 93.1 | 80.1 | 101 | 95.8 | 100 | 97.9 | 100 | 0 | 0 | 0.1 | 0.8 | 0 | > 10 | > 10 | > 10 | > 10 | > 10
